These results are taken from patent publication US20230097801A1, “METHODS OF INCREASING CELL PHAGOCYTOSIS” (National Health Research Institutes, priority 2021, published 2023).

The subject of series [1] is CD47. Description: Flow cytometry, anti-human CD47 2D3 control antibody binding on Raji cell surface. It counts as cell-based. Conditions: Raji cells. As for the experimental part:
Antibody conjugates and extracellular domain of SIRPα used to analyze cell surface CD47 binding include anti-human CD47 CC2C6, 2D3, recombinant human SIRPα/CD172a Fc chimer protein, and anti-human IgG Fc. To determine inhibition of CD47 binding, cancer cells were treated with compounds of formula (I) at various concentrations for 4 days. Thereafter, the cells were washed with PBS containing 0.5% BSA (FACS buffer) followed by incubation with fluorochrome-labeled antibodies to human CD47 (i.e., CC2C6 and 2D3) at 1:50 dilution in FACS buffer for 30 minutes at 4° C. Compounds of formula (I) produced a dose-dependent inhibition of anti-CD47 CC2C6 antibody that recognized CD47 and SIRPα binding site on the tumor cell surface including B-cell lymphoma Raji cells, colon cancer cells DLD-1, and ovarian cancer SK-OV-3 cells (see FIGS. 1A, 1B, and 1C, respectively).
For orientation: Flow cytometry measures light scatter and fluorescence of single cells or particles in a stream.

In series [2] the test system is human B-cell lymphoma Raji xenograft tumor. Description: Raji xenograft anti-tumor efficacy and survival study (3 weeks treatment). It counts as in vivo, NOD/SCID mice. Conditions: Compound 34 100 mg/kg p.o. QD*5, rituximab 10 mg/kg i.p. 2QW. From the text:
Human B-cell lymphoma Raji cells were used to evaluate the efficacy of Compound 34 and rituximab in treating cancer cells. Prior to injection into animals, the cancer cells were detected as free of Mycoplasma spp. NOD/SCID mice (BioLasco, Taiwan) were used for in vivo experiments due to their higher affinity of SIRPα to human CD47. The mice used in these studies were housed in Institutional Animal Care and Use Committees-approved facility at National Health Research Institutes in accordance with guidelines for the care and use of laboratory animals.
One million Raji cells in culture medium and matrigel (1:1, v/v) were injected subcutaneously into the left flank region of the mice (n=7 to 10 animals per group). Treatments were initiated after randomization with inclusion of tumors at approximately 100 mm^3. A dosing vehicle for Compound 34 was prepared using 10% DMA: 40% PEG400: 50% (1% CMC) (v/v/v) and was dosed orally (p.o.) at 100 mg/kg once a day, 5 days a week (Q.D.*5). Rituximab (Roche-Genentech, South San Francisco, Calif.) stock solution was diluted with PBS and dosed at 10 mg/kg twice a week (2QW) by intraperitoneal (i.p.) injection.
To evaluate anti-tumor efficacy and survival rates, mice were treated with vehicle control, 10 mg/kg rituximab (2QW, i.p.), 100 mg/kg Compound 34 (QD*5), or rituximab in combination with Compound 34. Treatment was discontinued at the end of 3 weeks. The mice were monitored for cancer growth and body weight once a week. Cancer growth was measured by volume with an electronic caliper. The volume was calculated as L×W^2/2, in which L is the length of the tumor and W is its width. Tumor size and animal body weight were measured once a week after cancer cell inoculation. Cancer response at the end of the study was calculated as tumor growth inhibition (TGI) using (1−T/C)*100, in which T is the mean tumor volume (mm^3) of the test group, and C is the mean tumor volume (mm^3) of the vehicle-treated group. […] For the survival study, treatment was discontinued at the end of 3 weeks. Thereafter, mice were followed up for tumor growth and body weight once a week. The mice were then sacrificed when tumor volume reached 2,000 mm^3 or body weight loss was greater than 10%. Kaplan-Meier plots were used as the study end point to calculate percentage of animals remaining in the study in term of the time. The median survival days for vehicle control and Compound 34 were 15.5 days and 18 days, respectively (FIG. 5E). Rituximab prolonged median survival days to 28 days after treatment discontinued (FIGS. 5C and 5E). Importantly, the combination of rituximab and Compound 34 further prolonged median survival days to 47 days (FIGS. 5D and 5E).

A short description of the next series: Mouse pk profiles. The class given is in vivo.
Series [3] can be described thus: Plasma and tumor concentrations in Raji xenograft mice. It counts as in vivo. The following applies: for concentration at 2 h: 2 hours after the last dose. As for the experimental part:
A pharmacokinetic study was conducted to evaluate plasma and tumor concentrations of Compound 34 using human B-cell lymphoma Raji xenograft tumors. One million Raji cells in culture medium and matrigel (1:1, v/v) were injected subcutaneously into the left flank region of each mouse. Treatments were initiated after randomization with inclusion of tumors at approximately 90 mm^3. A dosing vehicle for Compound 34 was prepared using 10% DMA: 40% PEG400: 50% (1% CMC) (v/v/v) and was dosed orally (p.o.) at 100 mg/kg once a day and 5 days a week (Q.D.*5). The mice were treated with either the vehicle control or Compound 34 for 3 weeks. They were sacrificed 2, 4, 8, or 24 hours after the last dose (n=4 per time point). Tumor and plasma were collected to determine concentrations of Compound 34.

For series [4], the system named is CD47. Description: Pharmacodynamic study, CC2C6 binding and total CD47 on Raji xenograft tumor cells. The class given is in vivo, human. The following applies: 100 mg/kg p.o. QD*5, 10 days. On the procedure:
A pharmacodynamic study was also conducted to evaluate target engagement of Compound 34. In this study, one million Raji cells in culture medium and matrigel (1:1, v/v) were injected subcutaneously into the left flank region of each mouse. Treatments were initiated after randomization with inclusion of tumors at approximately 150 mm^3. A dosing vehicle for Compound 34 was prepared using 10% DMA: 40% PEG400: 50% (1% CMC) (v/v/v) and was dosed orally (p.o.) at 100 mg/kg once a day and 5 days a week (Q.D.*5). The mice were treated with either the vehicle control or Compound 34 for 10 days. They were then sacrificed 24 hours after the last dose (n=4 per group). Tumors were harvested and isolated into single cell suspensions for flow cytometry analysis. Unexpectedly, Compound 34 reduced 56% of anti-CD47 CC2C6 antibody binding on the tumor cell surface, as indicated by a decreasing level of anti-CC2C6^+ tumor cells in the Compound 34-treated mice as compared to the vehicle-treated mice.
Background: In xenograft studies the graft and the host belong to different species.

Entries after “also recorded” stand apart in the source; their conditions may differ. Like-named read-outs stand apart in the source and are kept apart here.

As for `O=C1NC[C@H](c2ccc(-c3csc(C(F)(F)F)c3)c(F)c2F)N1c1ccc2[nH]cnc2c1` [Compound 34], the “inhibition of binding of anti-human CD47 antibody 2D3 (in words)” value in the series on CD47 [1] is recorded as “not by anti-CD47 control antibody 2D3; also recorded: did not inhibit”. In series [2] (3 weeks), the “tumor growth inhibition (TGI, % of control)” value is 41.4%. In series [2] (treatment discontinued at 3 weeks), the median survival days turned out to be 18 days. Besides, the “AUC Plasma” value in the series “Mouse pk profiles” (IV (2 mg/kg)) stood at 8869 ng·h/g; in “Mouse pk profiles” (PO (30 mg/kg)), 56451 ng·h/g. In addition, the clearance (in general, a measure of how efficiently the substance is removed, as volume per time) in “Mouse pk profiles” (plasma, IV (2 mg/kg)) was found to be 4.6 mL/min/kg. Moreover, in the series “Mouse pk profiles” (plasma, PO (30 mg/kg)), the Cmax (commonly the highest concentration seen after dosing) came to 1980 ng/mL. The bioavailability (usually dose-corrected exposure relative to a reference, in per cent) in the series “Mouse pk profiles” (plasma, PO (30 mg/kg) vs IV (2 mg/kg)) stood at 43%. For the same compound, the half-life in “Mouse pk profiles” (plasma, PO (30 mg/kg), read-out: T1/2 (h) Plasma (converted)) was 9.3 h. Also, the tumor concentration in series [3] (100 mg/kg p.o. QD*5 for 3 weeks, next 22 hours (2 to 24 hours after the last dose)) is given as ≥ 27,507 ng/g tissue weight. Moreover, the concentration at 2 h in series [3] (mouse, plasma, oral, 100 mg/kg p.o. QD*5 for 3 weeks, read-out: plasma concentration) was 18600 ng/mL; in series [3] (mouse, tumor, oral, 100 mg/kg p.o. QD*5 for 3 weeks, read-out: tumor concentration), 29700 ng/g. Also, the concentration at 24 h in series [3] (mouse, plasma, oral, 100 mg/kg p.o. QD*5 for 3 weeks, 24 hours after the last dose) was 5360 ng/mL. For the same compound, the “tumor concentrations versus plasma (in words)” value in series [3] (within 24 hours post treatment) is given as “much higher than those in plasma”. Also, the “total CD47 expression level on the tumor cell surface” value with CD47 [4] was “did not affect a total CD47 expression level; also recorded: without affecting a total CD47 expression level”.
